# Data taken from patent US12486218B2, “Compounds advantageous in the treatment of central nervous system diseases and disorders” (AurimMed Pharma, Inc., priority 2008, dated 2025).
# Assays:
# mice [1] = assay: Maximal Electroshock Seizure (MES) test, mice i.p.; format: in vivo; settings: for activity in the MES test: mice; for MES, fraction of animals: mice i.p.
# rats [2] = assay: Pilocarpine-induced Status Epilepticus in Rats (prevention; intervention @ 30 min); settings: Rattus norvegicus
# Experimental: The animal testing was performed using the protocols developed in the Anticonvulsant Screening Program (ASP) at the National Institute of Neurological Disorders and Stroke (NINDS), National Institutes of Health (NIH).
# SMN2 promoter = SMN2 promoter β-lactamase reporter assay in NSC34 motor neuron-like cells; format: cell-based; settings: for Promoter (SMN2 promoter test, summary YES/NO): Table 13 summary; for SMN2 promoter activity: treatment for 19 hours at a concentration of 1 μM; for SMN2 promoter assay, particularly strong hits: NSC34 BLA reporter cells
# Experimental: FIG. 30 illustrates a screen for SMN2 expression of a number of compounds described herein.
# SMN2 promoter activity was measured using NSC34 motor neuron-like cells stably transfected with a β-lactamase (BLA) reporter gene under the control of a 3.4-kilobase fragment of the SMN2 promoter. D156844 was used as a positive control for this assay.
# [3] = tested on: rat dopaminergic N27 cells; assay: N27 protection assay against oxidative stress (H2O2 or MPP+; MTT and LDH); format: cell-based; settings: drug 24 hours before 200 μM H2O2 or 640 μM MPP+
# From the text: FIGS. 20A-25D data are shown illustrating neuroprotective and neuroregenerative effects observed in rat dopaminergic N27 cells. Rat dopaminergic N27 cells are commonly used in in vitro and in vivo model systems for studying Parkinson's disease. Parkinson's disease is a neurodegenerative disorder of the central nervous system that affects more than 6 million people worldwide. The motor symptoms of Parkinson's disease result from the death of dopamine generating cells in the substantia nigra, a region of the midbrain.
# The N27 rat dopaminergic neuron cell line was harvested from E12 rat mesencephalic tissue and was transfected with SV40 to immortalize the cell line. The N27 cell line, when injected into the striata of 6-hydroxydopamine-lesioned rats (an animal model of PD) caused a time-dependent improvement in neurological deficits. This immortalized cell line has been carefully characterized in studies of dopamine biosynthesis, neurotoxicity and used as a dopaminergic neuron model studies.
# The N27 in vitro Parkinson's disease model included a test of cell viability and cell toxicity in response to exposure to oxidative stress (e.g., either 200 μM H2O2 or 640 μM MPP+).
# Cell viability was tested using the MTT assay. The MTT assay is a colorimetric analysis based on the activities of mitochondrial NAD(P)H-dependent cellular oxidoreductase enzymes. These enzymes are capable of reducing the tetrazolium dye, MTT [3-(4,5-dimethylthiazol-2-yl)-2,5-diphenyltetrazolium] bromide, to an insoluble formazan (purple). […] More viable cells equal more accumulation of the insoluble formazan dye.
# Cell toxicity was tested using the […] (LDH) assay. Cells that are stressed secrete LDH. In general, the more cells are stressed, the LDH they secrete into their media. The LDH assay is a reliable colorimetric assay to measure quantitatively the […] (LDH) that is released into the cell culture media from damaged cells as a biomarker for cytotoxicity and cytolysis.
# FIGS. 20A-25D present data from two types of assays: protection and recovery assays. In the protection assays, the drug candidate was applied to the cells at various concentrations for 24 hours, followed by the exposure to oxidative stress (either 200 μM H2O2 or 640 μM MPP+) for measuring neuroprotective effect. H2O2 provides a broad measure of oxidative stress, while MPP+ gives a more specific oxidative stress to dopaminergic neurons.
# The protection assay results are shown in panels A-C of FIGS. 20-25 In the recovery assays, the cells were first damaged by exposure to H2O2 and then various concentrations of the drug were applied to the cells. The results for the recovery assays are shown the D panels of FIGS. 20-25.
# rats [4] = assay: MES test, rats p.o.; format: in vivo; settings: at 30 mg/kg
# mice [5] = assay: Minimal motor impairment (MID50), mice i.p.; settings: mice i.p.; 100 mg/kg @ 0.5 hr
# Experimental: The animal testing was performed according to methods known in the relevant art.
# mice [6] = assay: 6 Hz (minimal clonic seizure) model, mice i.p.; format: in vivo; settings: for 6 Hz (32 mA), fraction of animals: mice i.p.
# mice [7] = assay: Subcutaneous Metrazol Seizure threshold (s.c. MET) test, mice i.p.; format: in vivo; settings: mice; at 300 mg/kg
# [8] = tested on: inclusion of exon 7 in SMN2 mRNAs; assay: Exon 7 inclusion BLA reporter assay in NSC34 cell line; format: cell-based; settings: for effect on the inclusion of exon 7 in SMN2 transcripts / exon 7 test, particularly strong hits: NSC34 exon 7 BLA reporter cells; for Exon 7 inclusion (summary YES/NO): Table 13 summary
# From the text: To measure changes in the inclusion of exon 7 in SMN2 mRNAs, another NSC34 cell line was used that stably transfected with a reporter construct which expresses BLA when exon 7 is included in the SMN2 minigene mRNAs. 5-(N-ethyl-N-isopropyl)-amiloride (EIPA) was used as a positive control for this assay. Data for tis assay is illustrated in FIG. 30.
# [9] = read-out: Prevention, Protection
# [10] = 0.5 h, read-out: Intervention @ 30 min, Protection
Structure (SMILES),activity in the MES test (mice [1]; at 100 mg/kg),"Promoter (SMN2 promoter test, summary YES/NO) (SMN2 promoter)",SMN2 promoter activity (SMN2 promoter),activity in the MES test (rats [4]),"MES, fraction of animals (mice [1]; 100 mg/kg @ 0.5 hr)","MID50, fraction of animals (mice [5])",effect on the inclusion of exon 7 in SMN2 transcripts [8],Exon 7 inclusion (summary YES/NO) [8],also measured
"COc1ccc(C(CC(N)=O)C(C)C)cc1C (stereo not shown) [AS, 3-(4-Methoxy-3-methyl-phenyl)-4-methylpentanoic acid amide]",activity,YES,increased SMN2 promoter activity,activity,,,,,responders at 200 mg/kg (rats [2]; [9]): 100%; neuroprotective effect against H2O2 and MPP+ oxidative stresses (MTT and LDH assays) [3]: potent dose-dependent neuroprotective effects
"CC(CC(=O)N(C)C)c1ccc(OC(F)(F)F)cc1 (stereo not shown) [BD, N,N-Dimethyl-3-(4-trifluoromethoxy-phenyl)-butyramide]",activity,,,,1/1 @,"4/8 @ 0.5 hrs,",,,"6 Hz (32 mA), fraction of animals (mice [6]; 100 mg/kg @ 2.0 hr): 2/4 @ 0.5,; activity in the s.c. MET test (mice [7]): activity"
"CC(CC(=O)N1CCCC1)c1ccc(OC(F)(F)F)cc1 (stereo not shown) [BG, 1-Pyrrolidin-1-yl-3-(4-trifluoromethoxy-phenyl)-butan-1-one]",activity,,,activity,1/3 @,,,,
"CC(CC(N)=O)c1ccccc1OC(F)(F)F (stereo not shown) [BU, 3-[2-(trifluoromethoxy)-phenyl]butyramide]",activity,YES,increased SMN2 promoter activity,,3/3,5/8 @,positive effect on the inclusion of exon 7,YES,"exon 7 test, particularly strong hits [8]: Particularly strong hits; MES, fraction of animals (mice [1]; 100 mg/kg @ 4.0 hr): 2/3; responders at 127 mg/kg (rats [2]; [10]): 50%; responders at 65 mg/kg (rats [2]; [9]): 100%; SMN2 promoter assay, particularly strong hits (SMN2 promoter): Particularly strong hits"
"CC(CC(N)=O)c1ccc(Cl)cc1 (stereo not shown) [BV, 3-[4-chloro-phenyl]butyramide]",activity,,,activity,2/3 @,,,,
"CC(CC(N)=O)c1ccc(-c2ccccc2)c(F)c1 (stereo not shown) [Compound AX, 3-(2-Fluoro-biphenyl-4-yl)butyramide]",,YES,increased SMN2 promoter activity,,,,positive effect on the inclusion of exon 7,YES,"exon 7 test, particularly strong hits [8]: Particularly strong hits; 6 Hz (32 mA), fraction of animals (mice [6]; 100 mg/kg @ 0.5 hr): 3/4; 6 Hz (32 mA), fraction of animals (mice [6]; 100 mg/kg @ 1.0 hr): 2/4; 6 Hz (32 mA), fraction of animals (mice [6]; 100 mg/kg @ 2.0 hr): 1/4 @; activity in the 6 Hz (minimal clonic seizure) model (mice [6]; mice, at 100 mg/kg): activity; SMN2 promoter assay, particularly strong hits (SMN2 promoter): particularly strong hits"
"CNC(=O)CC(C)(C)c1ccc(Cl)cc1 [Compound B, 3-(4-Chlorophenyl)-3,N-dimethylbutyramide]",,,,,,2/8 @0.5 hr,,,responders at 300 mg/kg (rats [2]; [9]): 43%; neuroprotective effect against H2O2 and MPP+ oxidative stresses (MTT and LDH assays) [3]: potent dose-dependent neuroprotective effects
"C[C@H](CC(N)=O)c1ccccc1 [Compound C, (R)-3-Phenylbutyramide]",activity,,,,"1/6 @0.5 hr,",1/8 @0.5 hr,,,
"CC(CC(N)=O)c1ccc2c(c1)OCO2 (stereo not shown) [L, 3-(3,4-methylenedioxy-phenyl)butyramide]",,,increased SMN2 promoter activity,,,,positive effect on the inclusion of exon 7,YES,activity in the MES test (mice [1]; at 300 mg/kg): activity; responders at 600 mg/kg (rats [2]; [10]): 29%; responders at 450 mg/kg (rats [2]; [9]): 100%; activity in the s.c. MET test (mice [7]): activity
